Results published in EP0982027A1, “Taxoid derivatives for treating abnormal cell proliferation of the brain” (RHONE-POULENC RORER S.A., priority 1998, dated 2000).
Several values for one entry are separate records, joined by “and”; a condition that tells them apart may be missing. Equal values may be shown once. Read-outs that look alike come from different tables or passages of the source.

Assay: in vivo
Set-up: species or system female C3H/HeN mice
Details: mouse, 40 mg.kg^-1 i.v.; for AUC0-∞: mean level data
Protocol: Groups of female C3H/HeN mice received the product by the intravenous route as a bolus at a dose level of 40 mg.kg^-1 equivalent to 120 mg.m^-2. Blood and brain samples were obtained from all dosed animals sacrificed at intervals up to 72 hours post dose. Brain and corresponding plasma samples have been assayed for product Ia content by an LC-MS/MS assay.
• Formulation: 2.25 mg.ml^-1 solution containing 5 % Polysorbate 80, 5 % ethanol and 90 % of an aqueous 5 % glucose solution. […]
• Sampling : Blood by cardiac puncture and liver and brain by dissection after CO2 sacrifice • Sample Times : at 2, 5, 15, 30, 45 minutes, 1, 2, 4, 6, 8, 14, 24, 48 and 72 hours post dose.
Whole blood was collected into heparinised tubes and corresponding plasma samples were obtained by centrifugation and frozen immediately at -20°C. Tissues were blotted, weighed and frozen immediately at -20°C. All samples were dispatched frozen for analysis. Upon receipt, samples were stored frozen at approximately -18°C pending analysis.
• Detection: LC-MS/MS (Sciex API III plus) in turbo-ionspray mode
The following MS conditions were applied:
Column: 75 x 4.6 mm Supelcosil ABZ plus (3 µm). Mobile phase: Acetonitrile/methanol/ammonium acetate (10mM); 40/25/35 v/v/v. Flow rate : 1 ml.min^-1. Temperature : Ambient. Extraction : Plasma: Add 100 µl of acetonitrile to sample (50 µl). Vortex, centrifuge, remove supernatant, add 100 µl of mobile phase and inject 150 µl. Brain : Add 100 µl of acetonitrile to homogenised sample (100 mg of a 1:1 w/w brain with water homogenate) and vortex. Add 1ml of diethyl ether, vortex, centrifuge, remove organic layer and dry under N2. Reconstitute in 200 µl of mobile phase and inject 150 µl. Calibration standards: Plasma : Nine at concentrations of 5, 10, 20, 50, 100, 200, 300, 400 & 500 ng.ml^-1 (product Ia). Prepared by adding suitable aliquots of the product (concentrations = 0.1, 1 or 10 µg.ml^-1) in ethanol to 0.5 ml aliquots of mouse plasma. Each sample was vortexed following drug addition; a 50 µl aliquot was then removed for assay. Brain : Eleven at concentrations of 10, 20, 30, 100, 200, 300, 400, 500, 1000, 2500 & 5000 ng.g^-1 in homogenised mouse brain (1:1 w/w brain with water). Prepared by adding suitable aliquots of the product (concentrations = 1, 10 or 100 µg.ml^-1) in ethanol to 0.5, 1, 3 or 4 g of homogenised mouse brain. Each sample was vortexed following drug addition and a 100 mg aliquot was then removed for assay. Retention times: Drug; product Ia: ∼2.3 min. Extraction efficiency : Plasma : ca.58 % at 200 ng.ml^-1. Brain : ca.41 % at 500 ng.g^-1 and 39 % at 1000 ng.g^-1.
A biexponential equation was fitted to the profiles using an interactive linear least-square algorithm as part of the SIPHAR package.
AUC0-∞: Area under the plasma or brain concentration versus time curve from t=0 (start of infusion) to infinity. Initial T1/2: Initial (distribution) half-life. Terminal T1/2: Terminal (elimination) half-life (should be regarded as an estimate only being dependent on sampling frequency in the terminal phase and assay sensitivity). ClT: Total plasma clearance. Vdss: Volume of distribution at steady state. n.a.: Not applicable.

CO[C@H]1C(=O)[C@]2(C)[C@@H](OC)C[C@H]3OC[C@@]3(OC(C)=O)[C@H]2[C@H](OC(=O)c2ccccc2)[C@]2(O)C[C@H](OC(=O)[C@H](O)[C@@H](NC(=O)OC(C)(C)C)c3ccccc3)C(C)=C1C2(C)C [product Ia, 4α-acetoxy-2α-benzoyloxy-5β,20-epoxy-1β-hydroxy-7β,10β-dimethoxy-9-oxo-11-taxen-13α-yl (2R,3S)-3 tert-butoxycarbonylamino-2-hydroxy-3-phenylpropionate]
AUC0-∞ (Brain, extrapolated from 72h to infinity): 788 h.µg.g^-1 and 787.8* h.µg.g^-1
ClT (Plasma#, calculated from values ≥ b.l.q. of 20 ng.ml^-1): 21.7 mL/min/kg
ClT (Plasma+, calculated from values ≥ l.o.d. of 4 ng.ml^-1): 21.7 mL/min/kg
AUC0-∞ (Plasma+, calculated from values ≥ l.o.d. of 4 ng.ml^-1, listed as product Ic, 40 mg/kg): 30.0 µg·h/mL
Cmax at 14 h (brain, iv, at 14h, read-out: brain peak levels): 9100 ng/g
half-life (iv, Brain, read-out: Terminal T1/2 (converted)): 31.4 h
clearance (iv, Plasma+, calculated from values ≥ l.o.d. of 4 ng.ml^-1, read-out: ClT (converted)): 21.7 mL/min/kg
time post dose up to which plasma levels were consistently above the limit of detection (limit 4 ng.ml^-1): up to 24 h
time post dose up to which plasma levels persisted above the limit of accurate quantification (limit 20 ng.ml^-1): up to 14 h
Plasma product Ic concentration (2 min after dose, individual animals IV1-IV4, 40 mg/kg, 2 min): 45942 ng/mL and 49607 ng/mL and 38994 ng/mL
Brain product Ic concentration (2 min after dose, individual animals IV1-IV4, listed as product Ic, 40 mg/kg, 2 min): 8817 ng/g and 8147 ng/g and 7630 ng/g
Plasma product Ic concentration (5 min after dose, individual animals IV1-IV4, 40 mg/kg, 5 min): 33538 ng/mL and 32077 ng/mL and 34903 ng/mL
Brain product Ic concentration (5 min after dose, individual animals IV1-IV4, listed as product Ic, 40 mg/kg, 5 min): 8473 ng/g and 7762 ng/g and 8091 ng/g
Plasma product Ic concentration (15 min after dose, individual animals IV1-IV4, 40 mg/kg, 15 min): 20897 ng/mL and 21051 ng/mL and 19459 ng/mL
Brain product Ic concentration (15 min after dose, individual animals IV1-IV4, listed as product Ic, 40 mg/kg, 15 min): 7100 ng/g and 7641 ng/g and 6481 ng/g
Plasma product Ic concentration (0.5h after dose, individual animals IV1-IV4, 40 mg/kg, 30 min): 10344 ng/mL and 9170 ng/mL and 11232 ng/mL
Brain product Ic concentration (0.5h after dose, individual animals IV1-IV4, listed as product Ic, 40 mg/kg, 30 min): 6788 ng/g and 8317 ng/g and 6894 ng/g
Plasma product Ic concentration (0.75h after dose, individual animals IV1-IV4, 40 mg/kg, 45 min): 10948 ng/mL and 8121 ng/mL and 10148 ng/mL
Brain product Ic concentration (0.75h after dose, individual animals IV1-IV4, listed as product Ic, 40 mg/kg, 45 min): 8086 ng/g and 7513 ng/g and 7272 ng/g
Plasma product Ic concentration (1h after dose, individual animals IV1-IV4, 40 mg/kg, 60 min): 7423 ng/mL and 6693 ng/mL and 6079 ng/mL
Brain product Ic concentration (1h after dose, individual animals IV1-IV4, listed as product Ic, 40 mg/kg, 60 min): 6424 ng/g and 8964 ng/g and 1747 ng/g and 7489 ng/g
Brain product Ic concentration (2h after dose, individual animals IV1-IV4, listed as product Ic, 40 mg/kg, 120 min): 8418 ng/g and 6966 ng/g and 7017 ng/g
Plasma product Ic concentration (4h after dose, individual animals IV1-IV4, 40 mg/kg, 240 min): 1110 ng/mL and 835 ng/mL and 830 ng/mL
Brain product Ic concentration (4h after dose, individual animals IV1-IV4, listed as product Ic, 40 mg/kg, 240 min): 6939 ng/g and 6712 ng/g and 5459 ng/g
Plasma product Ic concentration (6h after dose, individual animals IV1-IV4, 40 mg/kg, 360 min): 316 ng/mL and 346 ng/mL and 336 ng/mL
Brain product Ic concentration (6h after dose, individual animals IV1-IV4, listed as product Ic, 40 mg/kg, 360 min): 6688 ng/g and 7968 ng/g and 7350 ng/g and 3712 ng/g
Plasma product Ic concentration (8h after dose, individual animals IV1-IV4, 40 mg/kg, 480 min): 199 ng/mL and 195 ng/mL and 154 ng/mL
Brain product Ic concentration (8h after dose, individual animals IV1-IV4, listed as product Ic, 40 mg/kg, 480 min): 6977 ng/g and 8616 ng/g and 8342 ng/g
Plasma product Ic concentration (14h after dose, individual animals IV1-IV4, 40 mg/kg, 840 min): 56 ng/mL and 50 ng/mL and 52 ng/mL
Brain product Ic concentration (14h after dose, individual animals IV1-IV4, listed as product Ic, 40 mg/kg, 840 min): 10049 ng/g and 7595 ng/g and 9271 ng/g
Brain product Ic concentration (24 h after dose, individual animals IV1-IV4, listed as product Ic, 40 mg/kg, 1440 min): 9842 ng/g and 7885 ng/g and 9052 ng/g
Plasma product Ic concentration (24 h after dose, individual animals IV1-IV4, values flagged blq (below limit of accurate quantification, 20 ng.ml^-1), 40 mg/kg, 1440 min): 15(blq) ng.ml^-1 (2×) and 16(blq) ng.ml^-1
Plasma product Ic concentration (48 h after dose, individual animals IV1-IV4, blq = below 20 ng.ml^-1, n.d. = not detected (≤ l.o.d. of 4 ng.ml^-1)): 4(blq) ng.ml^-1
Brain product Ic concentration (48 h after dose, individual animals IV1-IV4, listed as product Ic, 40 mg/kg, 2880 min): 8541 ng/g and 7704 ng/g and 7986 ng/g
Brain product Ic concentration (72 h after dose, individual animals IV1-IV4, listed as product Ic, 40 mg/kg, 4320 min): 5511 ng/g and 5692 ng/g and 3894 ng/g
Plasma product Ic concentration (time after dose printed as '-' (line between 1h and 4h), MEAN): 4283 ng/mL
Plasma product Ic concentration (time after dose printed as '-' (line between 1h and 4h), individual animals IV1-IV4, 40 mg/kg): 4633 ng/mL and 4337 ng/mL and 4600 ng/mL and 3564 ng/mL
concentration at 2 min (brain, iv, 40 mg/kg, 2 min after dose, MEAN, read-out: Brain product Ic concentration): 7890 ng/g
concentration at 2 min (brain, iv, 40 mg/kg, 2 min after dose, individual animals IV1-IV4, read-out: Brain product Ic concentration): 6960 ng/g
concentration at 5 min (brain, iv, 40 mg/kg, 5 min after dose, MEAN, read-out: Brain product Ic concentration): 8170 ng/g
concentration at 5 min (brain, iv, 40 mg/kg, 5 min after dose, individual animals IV1-IV4, read-out: Brain product Ic concentration): 8340 ng/g
concentration at 0.25 h (brain, iv, 40 mg/kg, 15 min after dose, MEAN, read-out: Brain product Ic concentration): 6760 ng/g
concentration at 0.25 h (brain, iv, 40 mg/kg, 15 min after dose, individual animals IV1-IV4, read-out: Brain product Ic concentration): 5810 ng/g
concentration at 0.5 h (brain, iv, 40 mg/kg, 0.5h after dose, MEAN, read-out: Brain product Ic concentration): 7320 ng/g
concentration at 0.5 h (brain, iv, 40 mg/kg, 0.5h after dose, individual animals IV1-IV4, read-out: Brain product Ic concentration): 7260 ng/g
concentration at 0.75 h (brain, iv, 40 mg/kg, 0.75h after dose, MEAN, read-out: Brain product Ic concentration): 7640 ng/g
concentration at 0.75 h (brain, iv, 40 mg/kg, 0.75h after dose, individual animals IV1-IV4, read-out: Brain product Ic concentration): 7680 ng/g
concentration at 1 h (brain, iv, 40 mg/kg, 1h after dose, MEAN, read-out: Brain product Ic concentration): 6160 ng/g
concentration at 2 h (brain, iv, 40 mg/kg, 2h after dose, MEAN, read-out: Brain product Ic concentration): 7590 ng/g
concentration at 2 h (brain, iv, 40 mg/kg, 2h after dose, individual animals IV1-IV4, read-out: Brain product Ic concentration): 7960 ng/g
concentration at 4 h (brain, iv, 40 mg/kg, 4h after dose, MEAN, read-out: Brain product Ic concentration): 6760 ng/g
